Laboratory results as given in article PMC7313537 (PLoS ONE, 2020).

Experiments:
AKT1 = AKT1 (Homo sapiens, UniProt P31749); assay: Enzyme selectivity panel; type: biochemical; settings: 1 mM ATP
Experimental: (§1) The kinase assays were carried out at room temperature in HEPES 50 mM, pH 7.0, NaN3 0.02%, BSA 0.01%, Orthovanadate 0.1 mM, DTT 1 mM, MgCl2 10 mM in a final volume of 10 µL. Test compounds were transferred to the plate wells by ECHO liquid handler (Labcyte, San Jose, CA) with 0.5% dimethyl sulfoxide (DMSO) in the final assay. Peptide/kinase mixtures were diluted in the appropriate enzymatic buffer and 5µL of the mixture was added to a 384-well small volume black plate. Reactions were initiated by the addition of 5 µL ATP in reaction buffer, the final reaction mixture consisted of 500 nM peptide substrate, 1 mM ATP, and appropriate amount of specific kinase. […] The plates were then sealed and centrifuged at 1800 rpm for 2 minutes. […] Half maximal inhibitory concentration (IC50) determination was performed by fitting the curve of percent control activity versus the log of the compound concentration using the GraphPad Prism 6.0 software.

BRAF = BRAF (Homo sapiens, UniProt P15056); assay: Enzyme selectivity panel; type: biochemical; settings: 1 mM ATP
Experimental: as §1

BTK = BTK (Homo sapiens, UniProt Q06187); assay: Enzyme selectivity panel; type: biochemical; settings: 1 mM ATP
Experimental: as §1

CAMK2D = CAMK2D (Homo sapiens, UniProt Q13557); assay: Enzyme selectivity panel; type: biochemical; settings: 1 mM ATP
Chain of CAMK2D (Q13557 whole entry, species assumed): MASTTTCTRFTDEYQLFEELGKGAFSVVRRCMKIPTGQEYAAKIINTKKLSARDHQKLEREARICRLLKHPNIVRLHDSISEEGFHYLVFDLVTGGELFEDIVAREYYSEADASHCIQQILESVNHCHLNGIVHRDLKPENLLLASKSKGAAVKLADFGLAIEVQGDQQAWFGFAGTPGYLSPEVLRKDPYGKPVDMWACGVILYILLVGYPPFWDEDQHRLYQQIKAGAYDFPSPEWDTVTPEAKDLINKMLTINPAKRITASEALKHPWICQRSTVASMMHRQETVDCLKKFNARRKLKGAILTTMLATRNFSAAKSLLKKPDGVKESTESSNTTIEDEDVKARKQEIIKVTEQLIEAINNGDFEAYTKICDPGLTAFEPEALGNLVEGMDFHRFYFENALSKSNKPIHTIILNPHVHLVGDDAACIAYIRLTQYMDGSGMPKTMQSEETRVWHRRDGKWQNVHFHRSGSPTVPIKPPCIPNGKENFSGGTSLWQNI
Experimental: as §1

CHEK2 = CHEK2 (Homo sapiens, UniProt O96017); assay: Enzyme selectivity panel; type: biochemical; settings: 1 mM ATP
Chain of CHEK2 (O96017 whole entry, species assumed): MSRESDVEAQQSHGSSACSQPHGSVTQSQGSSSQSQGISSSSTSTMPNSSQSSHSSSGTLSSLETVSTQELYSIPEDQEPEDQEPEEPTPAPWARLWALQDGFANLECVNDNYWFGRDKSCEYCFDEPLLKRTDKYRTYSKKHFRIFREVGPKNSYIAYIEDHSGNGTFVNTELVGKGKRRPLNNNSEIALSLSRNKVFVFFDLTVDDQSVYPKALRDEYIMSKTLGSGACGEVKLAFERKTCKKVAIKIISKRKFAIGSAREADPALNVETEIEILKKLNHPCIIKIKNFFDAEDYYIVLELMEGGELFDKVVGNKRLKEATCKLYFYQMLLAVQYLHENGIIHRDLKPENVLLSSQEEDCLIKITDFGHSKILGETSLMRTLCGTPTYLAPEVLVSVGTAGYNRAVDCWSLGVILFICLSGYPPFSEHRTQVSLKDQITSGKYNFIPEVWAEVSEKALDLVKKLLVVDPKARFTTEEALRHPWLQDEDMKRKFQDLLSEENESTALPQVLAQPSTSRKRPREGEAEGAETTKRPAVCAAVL
Experimental: as §1

EPHB4 = target: T1, EPHB4 (Homo sapiens, UniProt P54760); assay: Enzyme selectivity panel; type: biochemical; settings: 1 mM ATP
T1 construct: purchased In-house HTRF panel (56 kinases) and PerkinElmer (161-kinase panel)
Experimental: as §1

FAK = FAK (Homo sapiens, UniProt Q05397); assay: Enzyme selectivity panel; type: biochemical; settings: 1 mM ATP
Experimental: as §1

LCK = LCK (Homo sapiens, UniProt P06239); assay: Enzyme selectivity panel; type: biochemical; settings: 1 mM ATP
Chain of LCK (P06239 whole entry, species assumed): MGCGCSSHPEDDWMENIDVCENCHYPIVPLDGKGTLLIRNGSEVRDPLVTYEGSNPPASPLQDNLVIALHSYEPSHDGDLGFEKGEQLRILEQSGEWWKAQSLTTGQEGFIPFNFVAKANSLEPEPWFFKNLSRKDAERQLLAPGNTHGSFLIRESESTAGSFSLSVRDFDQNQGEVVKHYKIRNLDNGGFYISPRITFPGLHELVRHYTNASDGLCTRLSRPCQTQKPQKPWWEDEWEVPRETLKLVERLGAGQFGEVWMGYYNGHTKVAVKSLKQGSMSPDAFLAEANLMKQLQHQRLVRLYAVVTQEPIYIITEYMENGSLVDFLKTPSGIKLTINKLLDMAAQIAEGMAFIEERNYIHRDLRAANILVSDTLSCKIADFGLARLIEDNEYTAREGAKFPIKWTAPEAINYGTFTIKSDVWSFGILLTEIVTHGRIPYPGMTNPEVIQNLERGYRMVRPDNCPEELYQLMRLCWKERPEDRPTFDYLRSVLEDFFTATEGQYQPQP
Experimental: as §1

MSSK1 = MSSK1 (Homo sapiens, UniProt Q9UPE1); assay: Enzyme selectivity panel; type: biochemical; settings: 1 mM ATP
Experimental: as §1

ROCK1 = ROCK1 (Homo sapiens, UniProt Q13464); assay: Enzyme selectivity panel; type: biochemical; settings: 1 mM ATP
Experimental: as §1

RSK2 = RSK2 (Homo sapiens, UniProt P51812); assay: Enzyme selectivity panel; type: biochemical; settings: 1 mM ATP
Experimental: as §1

SGK2 = target: T2, SGK2 (Homo sapiens, UniProt Q9HBY8); assay: Enzyme selectivity panel; type: biochemical; settings: 1 mM ATP
T2 construct: purchased In-house HTRF panel (56 kinases) and PerkinElmer (161-kinase panel)
T2 sequence (Q9HBY8 whole entry, species assumed): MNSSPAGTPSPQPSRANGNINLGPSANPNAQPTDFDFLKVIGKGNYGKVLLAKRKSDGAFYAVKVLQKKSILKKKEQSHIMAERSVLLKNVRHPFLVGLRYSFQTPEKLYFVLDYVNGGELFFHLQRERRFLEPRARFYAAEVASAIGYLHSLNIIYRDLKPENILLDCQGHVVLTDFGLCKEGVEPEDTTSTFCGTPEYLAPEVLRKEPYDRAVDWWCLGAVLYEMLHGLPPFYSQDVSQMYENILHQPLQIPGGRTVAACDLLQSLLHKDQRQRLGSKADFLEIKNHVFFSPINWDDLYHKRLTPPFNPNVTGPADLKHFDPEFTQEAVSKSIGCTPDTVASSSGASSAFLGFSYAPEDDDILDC
Experimental: as §1

STK4 = STK4 (Homo sapiens, UniProt Q13043); assay: Enzyme selectivity panel; type: biochemical; settings: 1 mM ATP
Experimental: as §1

TGFBR1 = TGFBR1 (Homo sapiens, UniProt P36897); assay: Enzyme selectivity panel; type: biochemical; settings: 1 mM ATP
Chain of TGFBR1 (P36897 34-503, species assumed): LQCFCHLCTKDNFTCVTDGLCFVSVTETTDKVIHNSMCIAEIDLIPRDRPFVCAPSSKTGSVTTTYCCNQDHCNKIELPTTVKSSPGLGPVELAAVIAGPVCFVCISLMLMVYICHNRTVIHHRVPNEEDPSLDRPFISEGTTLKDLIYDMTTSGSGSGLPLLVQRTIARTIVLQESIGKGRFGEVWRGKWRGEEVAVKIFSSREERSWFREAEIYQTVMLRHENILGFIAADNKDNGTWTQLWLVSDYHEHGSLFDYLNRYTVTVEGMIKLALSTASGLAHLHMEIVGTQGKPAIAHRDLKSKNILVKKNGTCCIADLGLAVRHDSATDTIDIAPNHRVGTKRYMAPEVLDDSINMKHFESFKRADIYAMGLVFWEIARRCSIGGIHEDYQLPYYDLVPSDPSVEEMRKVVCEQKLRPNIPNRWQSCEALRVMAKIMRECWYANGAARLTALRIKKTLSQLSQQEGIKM
Experimental: as §1

TIE2 = TIE2 (Homo sapiens, UniProt Q02763); assay: Enzyme selectivity panel; type: biochemical; settings: 1 mM ATP
Chain of TIE2 (Q02763 23-1124, species assumed): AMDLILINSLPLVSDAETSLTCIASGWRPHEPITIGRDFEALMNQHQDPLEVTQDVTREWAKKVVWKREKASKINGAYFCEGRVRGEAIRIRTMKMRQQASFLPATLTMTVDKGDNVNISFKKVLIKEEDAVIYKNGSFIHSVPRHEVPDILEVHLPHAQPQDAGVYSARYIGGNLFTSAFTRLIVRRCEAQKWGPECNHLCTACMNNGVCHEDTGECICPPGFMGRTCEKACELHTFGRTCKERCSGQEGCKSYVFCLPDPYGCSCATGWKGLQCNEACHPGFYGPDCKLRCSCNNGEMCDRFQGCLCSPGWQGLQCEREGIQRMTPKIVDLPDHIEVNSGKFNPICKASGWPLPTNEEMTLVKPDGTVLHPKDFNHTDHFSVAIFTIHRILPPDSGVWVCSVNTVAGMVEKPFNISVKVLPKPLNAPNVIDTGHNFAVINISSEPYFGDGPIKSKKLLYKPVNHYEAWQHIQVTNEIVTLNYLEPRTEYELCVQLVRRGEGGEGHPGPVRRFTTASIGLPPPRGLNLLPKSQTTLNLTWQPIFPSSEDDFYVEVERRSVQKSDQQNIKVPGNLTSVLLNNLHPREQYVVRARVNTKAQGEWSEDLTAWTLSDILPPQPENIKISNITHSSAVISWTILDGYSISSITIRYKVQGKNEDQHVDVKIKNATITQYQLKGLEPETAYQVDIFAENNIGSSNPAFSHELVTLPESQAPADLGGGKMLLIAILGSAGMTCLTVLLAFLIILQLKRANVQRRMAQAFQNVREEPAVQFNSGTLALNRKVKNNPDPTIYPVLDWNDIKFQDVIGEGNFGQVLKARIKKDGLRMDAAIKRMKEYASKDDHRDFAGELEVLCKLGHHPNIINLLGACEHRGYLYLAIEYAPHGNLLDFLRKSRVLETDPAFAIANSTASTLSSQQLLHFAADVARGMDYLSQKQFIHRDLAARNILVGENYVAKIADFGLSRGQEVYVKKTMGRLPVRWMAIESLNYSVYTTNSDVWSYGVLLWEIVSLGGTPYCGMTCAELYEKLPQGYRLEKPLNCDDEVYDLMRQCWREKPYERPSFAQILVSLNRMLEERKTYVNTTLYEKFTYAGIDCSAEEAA
Experimental: as §1

[1] = system: b-FGF induced growth of human umbilical vein endothelial cells (HUVEC); assay: HUVEC proliferation stimulated with b-FGF; type: cell-based; settings: read-out: IC50 for b-FGF induced growth
H1581 (lung cancer) = assay: Cell viability assay (CellTiter-Glo); type: cell-based; settings: Homo sapiens, NCI-H1581; FGFR1 amplification; 72 hours; read-out: Mean GI50 ± S.D.
DMS-114 (lung cancer) = assay: Cell viability assay (CellTiter-Glo); type: cell-based; settings: Homo sapiens, FGFR1 amplification, 72 hours, read-out: Mean GI50 ± S.D.
[2] = system: KATO III (gastric cancer); assay: Cell viability assay (CellTiter-Glo); type: cell-based; settings: Homo sapiens, FGFR2 amplification, 72 hours, read-out: Mean GI50 ± S.D.
[3] = system: AN3CA (endometrial cancer); assay: Cell viability assay (CellTiter-Glo); type: cell-based; settings: Homo sapiens, AN3-CA; FGFR2 N310R/N549K mutations; 72 hours; read-out: Mean GI50 ± S.D.
KG1 = assay: Cell viability assay (CellTiter-Glo); type: cell-based; settings: Homo sapiens; KG1, parental line to KG1a
MM1.S = assay: Cell viability assay (CellTiter-Glo); type: cell-based; settings: Homo sapiens, Myeloma, lacking FGFR alterations
UMUC3 = assay: Cell viability assay (CellTiter-Glo); type: cell-based; settings: Homo sapiens, Bladder, lacking FGFR alterations
Pharmacokinetic analyses = type: in vivo, beagle dogs; settings: male dog
Experimental: The i.v. formulation in rats was 5% dimethylacetamide (DMAC) and 25% sulfobutyl ether β-cyclodextrin in acidified saline (pH 3). The i.v. formulation in dogs and monkeys was 5% DMAC and 20% sulfobutyl ether β-cyclodextrin in saline. The oral formulation in all species was 5% DMAC in 0.5% methylcellulose aqueous solution. For rats, blood samples were collected at predose, 5 (i.v. dosing only), 15, and 30 minutes, and 1, 2, 4, 6, 8, and 24 hours. For dogs, blood samples were collected at predose, 2.5 and 5 (i.v. dosing only), 15, and 30 minutes, and 1, 2, 3, 4, 6, 8, 12, and 24 hours postdose. For monkeys, blood samples were collected at predose, 5 and 10 (i.v. dosing only), 15, and 30 minutes, and 1, 2, 3, 4, 6, 8, 12, 16, and 24 hours postdose. Collected blood samples were processed to extract plasma by centrifugation and stored at −20 °C until analysis.
The plasma was protein precipitated and the diluted supernatant was analyzed using LC/MS/MS. A standard curve was prepared in plasma from 1 to 5,000 nM and processed in the same manner as the samples. The pharmacokinetic parameters were determined using WinNonLin 6.3.

[4] = Tolerability in xenograft studies; type: in vivo
[5] = Preclinical safety studies; type: in vivo
[6] = system: phospho-FGFR3 in RT-112 cells; settings: proximity ligation assay
[7] = system: primary T cells from normal donors; settings: up to 1,500 nM
[8] = system: KG1 (FGFROP2-FGFR1 fusion positive) AML model; assay: KG1 xenograft efficacy; settings: 0.3 mg/kg once daily, oral, 14 days; P < 0.05
Experimental: The inoculation was performed subcutaneously on the right flank. The treatment of tumor bearing mice was started 7 days after tumor inoculation.

Chain of BRAF (P15056 whole entry, species assumed): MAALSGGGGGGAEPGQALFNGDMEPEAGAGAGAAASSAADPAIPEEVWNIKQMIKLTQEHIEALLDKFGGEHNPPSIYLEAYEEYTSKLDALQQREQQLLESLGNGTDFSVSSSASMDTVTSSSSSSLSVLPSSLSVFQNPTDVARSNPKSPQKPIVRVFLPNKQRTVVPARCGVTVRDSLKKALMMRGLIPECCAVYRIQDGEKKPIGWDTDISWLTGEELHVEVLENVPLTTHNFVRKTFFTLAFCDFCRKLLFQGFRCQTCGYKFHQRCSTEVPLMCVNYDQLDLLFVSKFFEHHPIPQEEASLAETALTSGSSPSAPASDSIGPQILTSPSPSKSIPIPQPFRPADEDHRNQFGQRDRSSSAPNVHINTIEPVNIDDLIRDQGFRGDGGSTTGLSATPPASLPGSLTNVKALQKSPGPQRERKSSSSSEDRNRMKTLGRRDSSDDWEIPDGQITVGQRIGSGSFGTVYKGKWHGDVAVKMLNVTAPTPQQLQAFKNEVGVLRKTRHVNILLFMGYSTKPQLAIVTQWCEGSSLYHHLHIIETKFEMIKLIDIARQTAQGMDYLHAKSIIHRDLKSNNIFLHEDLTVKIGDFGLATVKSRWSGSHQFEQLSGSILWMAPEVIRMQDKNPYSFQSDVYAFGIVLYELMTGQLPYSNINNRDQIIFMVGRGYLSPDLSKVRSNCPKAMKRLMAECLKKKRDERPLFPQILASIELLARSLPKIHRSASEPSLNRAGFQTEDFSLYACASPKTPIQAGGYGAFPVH
Chain of BTK (Q06187 whole entry, species assumed): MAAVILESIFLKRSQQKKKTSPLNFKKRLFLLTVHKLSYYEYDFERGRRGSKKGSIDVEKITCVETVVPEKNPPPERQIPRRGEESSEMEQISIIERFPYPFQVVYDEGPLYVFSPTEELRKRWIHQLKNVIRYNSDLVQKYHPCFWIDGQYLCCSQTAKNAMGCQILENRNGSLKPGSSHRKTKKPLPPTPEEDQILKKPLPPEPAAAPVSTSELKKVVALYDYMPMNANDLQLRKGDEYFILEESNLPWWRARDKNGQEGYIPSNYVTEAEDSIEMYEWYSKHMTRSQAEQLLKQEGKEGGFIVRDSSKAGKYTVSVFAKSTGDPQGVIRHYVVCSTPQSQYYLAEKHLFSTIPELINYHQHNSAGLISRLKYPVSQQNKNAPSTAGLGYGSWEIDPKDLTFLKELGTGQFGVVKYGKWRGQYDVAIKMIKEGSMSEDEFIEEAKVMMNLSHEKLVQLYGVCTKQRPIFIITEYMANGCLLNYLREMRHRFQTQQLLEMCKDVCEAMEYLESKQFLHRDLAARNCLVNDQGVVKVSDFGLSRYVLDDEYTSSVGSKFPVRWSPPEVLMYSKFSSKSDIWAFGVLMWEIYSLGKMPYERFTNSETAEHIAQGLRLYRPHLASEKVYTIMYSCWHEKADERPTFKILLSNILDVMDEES

CCN1C(=O)N(c2c(F)c(OC)cc(OC)c2F)Cc2cnc3[nH]c(CN4CCOCC4)cc3c21 [INCB054828, pemigatinib]
IC50 (AKT1): > 10 µM
IC50 (BRAF): > 10 µM
IC50 (BTK): > 10 µM
IC50 (CAMK2D): > 10 µM
IC50 (CHEK2): > 10 µM
IC50 (EPHB4): > 10 µM
IC50 (FAK): > 10 µM
IC50 (LCK): > 10 µM
IC50 (MSSK1): > 10 µM
IC50 (ROCK1): > 10 µM
IC50 (RSK2): > 10 µM
IC50 (SGK2): > 10 µM
IC50 (STK4): > 10 µM
IC50 (TGFBR1): > 10 µM
IC50 (TIE2): > 10 µM
IC50 [1]: 0.0082 µM
GI50 (H1581 (lung cancer)): 0.014 ± 0.009 µM
GI50 (DMS-114 (lung cancer)): 0.027 µM
GI50 [2]: 0.003 ± 0.001 µM
GI50 [3]: 0.048 ± 0.028 µM
GI50 (KG1): 0.001 µM
GI50 (MM1.S): > 5 µM
GI50 (UMUC3): > 5 µM
clearance (Pharmacokinetic analyses; beagle, plasma, intravenous 1 mg/kg): 3.05 mL/min/kg
Cmax (Pharmacokinetic analyses; beagle, plasma, oral 2 mg/kg): 1770 nM
bioavailability (Pharmacokinetic analyses; beagle, plasma, oral 2 mg/kg): 98%
Vss (Pharmacokinetic analyses; intravenous 1 mg/kg): 3.49 L/kg
t½ (Pharmacokinetic analyses; intravenous 1 mg/kg): 15.7 h
Hepatic ER (Pharmacokinetic analyses; intravenous 1 mg/kg, % of hepatic blood flow): 10%
AUC (Pharmacokinetic analyses; oral 2 mg/kg): 22.1 µM·h
overt toxicities ([4]; 0.3–1 mg/kg once daily, longer than 1 month): no overt toxicities were observed
tolerability (body weight changes, clinical signs) ([4]; doses up to and including 1 mg/kg, up to 42 days): well tolerated
liver toxicity and changes in blood pressure [5]: not observed
potent inhibition of FGFR3 (phospho-FGFR3), concentration [6]: < 10 nM
inhibition of the proliferation of primary T cells [7]: no inhibition
efficacy against subcutaneous xenograft [8]: significant efficacy
